Experimental data as given in patent EP1285919A1, “C10 Carbonate substituted taxanes as antitumor agents” (Florida State University Research Foundation, Inc., priority 2001, dated 2003).

Columns and labels:
[1] = system: VM46 Human Colon Carcinoma; assay: In vivo evaluation against VM46 colon carcinoma xenografts; parameters: species or system NCr-nude mice; Mean Score: scale not given here
Method: In Vivo Evaluation of Antitumor Compounds Against VM46 Human Colon Carcinoma
The VM46 tumor group mean size range was 181-188 mg. Dosing was initiated on Day 1. […] Taxotere was given i.v. at a dose of 70 mg/kg on a qd x 1 schedule. […] The study was terminated on Day 64. Treatment groups are detailed in Table 11.

[2] = system: A375 Human Melanoma Xenografts; assay: In vivo evaluation against A375 melanoma xenografts
Method: In Vivo Evaluation of Antitumor Compounds Against A375 Human Melanoma Xenografts
Antitumor compounds were prepared in a vehicle of 5% ethanol, 5% Cremophor and 90% isotonic saline in the manner as described for Solution 1 of Example 10. Taxol (paclitaxel; Bristol Meyers Squibb) and Taxotere (docetaxel; Rhône-Poulenc Rorer) were obtained as the marketed pharmaceutical drugs. The dosing volume was 0.3 ml per 20 g mouse.
Female NCr-nude mice were implanted subcutaneously with 1 mm^3 A375 melanoma fragments in the flank were sorted into treatment groups of six mice each, except the Taxotere treatment group which was a group of seven mice. […] Dosing was initiated on Day 1. The antitumor compounds were given i.v. at an estimated maximum tolerated dose (MTD) appropriate for each agent on a qd x 1 schedule (single administration of compound). The i.v. taxol was given on the qd x 1 schedule as two split doses (one hour between) of 12 mg/kg per split dose (total dose = 24 mg/kg). Taxol was also administered i.p. on a qd x 5 schedule at a daily dose of 18 mg/kg. Taxotere was given i.v. on a qd x 1 schedule at a dose of 70 mg/kg. The vehicle was administered i.v. to control mice in Group 1 on the qd x 1 schedule. The study was terminated on Day 60. Treatment groups are detailed in Table 7.
The results are summarized in Table 8 and include mean days of survival (MDS), number of toxic deaths, number of survivors, number of complete or partial responses, and number with stable disease. The mean days of survival is the number of days after which a neoplasm reached a size of 2.0 g and the animal was euthanized. A complete response is obtained […].

blood cell populations = assay: Effect of oral treatment on blood cell populations, body weight and tumor weight in the MX-1 study; type: in vivo, nu/nu mice; details: Group 3: 73 mg/kg single oral bolus
Method: Antitumor compounds were administered orally in a study to investigate whether such formulations are efficacious against the MX-1 human breast carcinoma xenograft. The compounds were prepared in the following vehicle: 90% saline, 5% Cremophor, and 5% ethanol. Antitumor compound 1771 was formulated as described for Solution 1 in Example 6. Antitumor compound 1781 was formulated as described for Solution 2 in Example 6.
Female nu/nu mice (11-12 weeks of age; implanted subcutaneously with 1 mm^3 MX-1 human breast carcinoma fragments in the flank) were sorted into one control (n=10) and two treatment (n=6) groups (group mean tumor size of 47-49 mg). Treatment groups are detailed in Table 14.
In addition to survival and tumor regression responses, the effect of treatment on blood cell populations was assessed. The major effect of these antitumor compounds on blood cell populations was a marked reduction in the neutrophil cell number. Monocyte depletion correlated fairly well with neutrophil reduction for each antitumor compound. […] There was a correlation between antitumor activity and reduced neutrophil count. In general, toxicity (as determined by neutrophil depletion) and weight loss correlated with efficacy. Importantly, the toxicities observed with the very efficacious antitumor compounds were manageable and reversible; neutrophil count and body weight rebounded from their nadirs in just a few days. Table 15 summarized the weight reduction, neutrophil and monocyte measurements on Day 4, with tumor weight reduction calculated at Day 18: Table 15

[3] = system: MX-1 Human Breast Carcinoma Xenograft; assay: In vivo evaluation of oral administration against MX-1 breast carcinoma xenograft
Method: In Vivo Evaluation of the Oral Administration of Antitumor Compounds Against the MX-1 Human Breast Carcinoma Xenograft
The compounds were prepared in the following vehicle: 90% saline, 5% Cremophor, and 5% ethanol.

[4] = system: SKMES Human Lung Carcinoma Xenograft; details: Group 3: 40 mg/kg single oral bolus Day 1, 6 mice, study to Day 60
Method: The compound was administered as a single bolus by the oral route in a study to investigate the efficacy of this compound against the SKMES human lung cancer xenograft.
Female Nu/Nu mice (6-8 weeks of age; implanted with 1 mm^3 SKMES lung carcinoma fragments in the flank) were sorted into four treatment groups of six mice each. SKMES size ranges and group mean SKMES size ranges were 126-448 mg and 238-241 mg, respectively. […] Treatments were administered as a single oral bolus on Day 1, and the study was terminated on Day 60.
The results are summarized in Table 13 and include mean days of survival (MDS), number of toxic deaths, number of survivors, number of complete or partial responses, and number with stable disease. The mean days of survival is the number of days after which a SKMES neoplasm reached a size of 2.0 g and the animal was euthanized. A complete response is obtained if the tumor is not palpable at the end of the study. A partial response is obtained if the tumor shrinks to a size smaller than its size on Day 1 of the study.
The total response rate was 100% with four complete responses and two partial responses. The total response rate is defined as the percentage of evaluable animals (excluding deaths due to procedure or toxicity) in a group that experience complete or partial responses at the termination of the study.

[5] = Group 4: 60 mg/kg i.v. qd x 1, 6 mice, study to Day 64
[6] = Group 4: 72.6 mg/kg i.p. qd x 1, 6 mice, study to Day 60
[7] = Group 3: 73 mg/kg single oral bolus Day 1, 6 mice, study to Day 63
[8] = Group 2: 24 mg/kg i.v. qd x 1 (two split doses of 12 mg/kg), 6 mice, study to Day 64
[9] = Group 3: 15 mg/kg i.p. qd x 5, 6 mice, study to Day 64
[10] = Group 2: 24 mg/kg i.v. qd x 1 (two split doses of 12 mg/kg), 6 mice, study to Day 60
[11] = Group 3: 18 mg/kg i.p. qd x 5, 6 mice, study to Day 60

## CCOC(=O)O[C@H]1C(=O)[C@@]2(C)[C@H]([C@H](OC(=O)c3ccccc3)[C@]3(O)C[C@H](OC(=O)[C@H](O)[C@H](C=C(C)C)NC(=O)OC(C)(C)C)C(C)=C1C3(C)C)[C@]1(OC(C)=O)CO[C@@H]1C[C@@H]2O [Compound 1781]
[1]; 1781 i.v. qd x 1, six mice
  Toxic Deaths: no toxic deaths
[1]; 1781 i.v. qd x 1 at estimated MTD
  response rate: 16.7%
[1]; Group 4: 60 mg/kg i.v. qd x 1, 6 mice, n=5, 1.5 g endpoint, study to Day 64
  MDS (n): 42.2 ± 7.1(5) days
[1]; [5]
  Complete Response: 0
  Mean Score: 3 ± 1.2
  Partial Response: 1
  Stable Disease: 0
  Toxic Deaths: 0
[1]; mouse, in vivo, iv
  tolerability: well-tolerated
[2]; 1781 i.v. qd x 1 at estimated MTD, six mice
  Toxic Deaths: five
[2]; [6]
  Complete Response: 0
  Mean Score: 0.5 ± 0.5
  Partial Response: 0
  Stable Disease: 0
  Survivors: 0
  Toxic Deaths: 5
[2]; mouse, in vivo, iv
  mean group weight losses: 20-30%
Blood cell populations; Day 4
  Monocytes (K/µL): 0.101 K/µL
  Neutrophils (K/µL): 0.117 K/µL
Blood cell populations; Day 4, vs vehicle
  % Reduction (Neutrophils): 87.2%
Blood cell populations; MX-1 tumor weight, Day 18
  Weight: 275.3 mg
Blood cell populations; tumor weight reduction calculated at Day 18, vs vehicle
  % Reduction (Weight): 68.3%
[3]; Group 3: 73 mg/kg single oral bolus Day 1, 6 mice, n=5, 1.5 g endpoint, study to Day 63
  Mean Day of Survival (n): 33.3 ± 2.9 (5)
[3]; Group 3: 73 mg/kg single oral bolus Day 1, 6 mice, on Day 5
  Maximum Weight Loss (Day): -9.4% (5)
[3]; [7]
  Complete Response: 0
  Partial Response: 0
  Stable Disease: 1
  Toxic Deaths: 0
[3]; single oral bolus Day 1, for 1771 the other two mice of the group
  survival versus vehicle controls: significant survival extensions

## CC(=O)O[C@H]1C(=O)[C@@]2(C)[C@H]([C@H](OC(=O)c3ccccc3)[C@]3(O)C[C@H](OC(=O)[C@H](O)[C@@H](NC(=O)c4ccccc4)c4ccccc4)C(C)=C1C3(C)C)[C@]1(OC(C)=O)CO[C@@H]1C[C@@H]2O [Taxol]
[1]; Group 2: 24 mg/kg i.v. qd x 1 (two split doses of 12 mg/kg), 6 mice, n=4, 1.5 g endpoint, study to Day 64
  MDS (n): 43.3 ± 3.7 (4) days
[1]; [8]
  Complete Response: 0
  Mean Score: 3.8 ± 1.4
  Partial Response: 1
  Stable Disease: 1
  Toxic Deaths: 0
[1]; Group 3: 15 mg/kg i.p. qd x 5, 6 mice, n=2, 1.5 g endpoint, study to Day 64
  MDS (n): 36.1 ± 12.2(2) days
[1]; [9]
  Complete Response: 0
  Mean Score: 1.8 ± 1.3
  Partial Response: 1
  Stable Disease: 0
  Toxic Deaths: 3
[1]; Taxol 15 mg/kg i.p. qd x 5, six treated animals
  mortalities: three
[1]; i.v. qd x 1, Taxol 24 mg/kg (four mice), Taxotere 70 mg/kg, 1.5 g endpoint
  MDS: 43.3 days
[1]; number of cases, Taxol 24 mg/kg i.v. qd x 1, six mice
  Stable Disease: one
[1]; number of mice, Taxol 24 mg/kg i.v. qd x 1, six mice
  Partial Response: one
[4]; n=6, 2.0 g endpoint
  MDS (n): 13.2 ± 1.4(6) days
[4]
  % Total Response: 0%
  Complete Response: 0
  Partial Response: 0
  Stable Disease: 0
  Survivors: 0
  Toxic Deaths: 0
[2]; Group 2: 24 mg/kg i.v. qd x 1 (two split doses of 12 mg/kg), 6 mice, n=4, 2.0 g endpoint, study to Day 60
  MDS (n): 18.1 ± 0.6 (4) days
[2]; [10]
  Complete Response: 0
  Mean Score: 0.8 ± 0.3
  Partial Response: 0
  Stable Disease: 0
  Survivors: 0
  Toxic Deaths: 2
[2]; [11]
  Complete Response: 0
  Mean Score: 0 ± 0
  Partial Response: 0
  Stable Disease: 0
  Survivors: 0
  Toxic Deaths: 6
[2]; Taxol 18 mg/kg i.p. qd x 5, six mice
  animals died of toxicity: six
[2]; i.v. qd x 1, Taxol 24 mg/kg, Taxotere 70 mg/kg
  survival extension compared to Group 1 controls: 26%
[2]; i.v. qd x 1, Taxol 24 mg/kg, Taxotere 70 mg/kg, 2.0 g cut-off
  MDS: 18.1 days
